Consider two compounds from patent US10493398B2, “Cyclic amine for selectively removing hydrogen sulphide” (BASF SE, priority 2015, dated 2019).

The series can be described thus: pKA values by half-equivalence method. The format is physicochemical. The conditions noted are these: for pKa: amine in water, half neutralized with hydrochloric acid; for pKa decrease from 20 °C to 120 °C (pKa at 20 °C − pKa at 120 °C): difference between 20° C. and 120° C. The procedure: The pKA values are suitably measured in aqueous solution with an amine concentration of 0.01 to 0.05 mol/kg at the specified temperature by determining the pH at the half-equivalence point, as shown, for example, by the working examples.
The pKA values of various amines were determined by means of the half-equivalence method. For this purpose, the amines were dissolved in water with a concentration of […] and partly neutralized with half the molar amount of hydrochloric acid (0.005 to 0.025 mol/L). The mass of the amine solutions was 250 g. […] The measurements were conducted at 20 and 120° C. The pH electrode used was the “Hamilton Polylite Plus 120” model, which is calibrated with pH 7 and pH 12 buffer solutions. The measurement was effected in a thermostated closed jacketed vessel with nitrogen blanketing.

Setting [1] is: 20° C., read-out: pKA at 20° C.
Setting [2] is: 120° C., read-out: pKA at 120° C.

Like-named read-outs stand apart in the source and are kept apart here.

Consider `CC1(C)CC(O)CC(C)(C)N1` [TAAol, 4-hydroxy-2,2,6,6-tetramethylpiperidine], for which the “pKa decrease from 20 °C to 120 °C (pKa at 20 °C − pKa at 120 °C)” value is 2.6. Besides, the pKa under setting [1] came to 10.2. Also, the pKa under setting [2] came out at 7.6.
The like results for `CN(C)C1CC(C)(C)NC(C)(C)C1` [DATP, 4-dimethylamino-2,2,6,6-tetramethylpiperidine] were, in that order, 2.6, 10.7 and 8.1.

A word on the pKa: it is the negative logarithm of the acid dissociation constant.
